Like-named read-outs stand apart in the source and are kept apart here.
How the values were obtained:
NRF2 = test: qPCR analysis of NRF2-regulated genes; assay type: cell-based, human; conditions: for Potential NRF2 Activation (>=2 target genes induced, by >=1.5-fold): Assay 13(p); for fold induction at 10 µM: Homo sapiens
Summary of the method: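 WI-38 cells treated with compound at 10 μM for 24 hrs, then processed by Cells-to-Ct for RNA isolation, RT and qPCR of NRF2-regulated genes (HMOX1, NQO1, GCLC, GSTM1). Expression normalized to B2M, PPIA and GAPDH; siRNA knockdown of FOXO3 or NRF2 (10 nM) preceded treatment in some runs.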

LC3A/B puncta = test: Autophagy induction analysis (LC3A/B puncta immuno-staining); assay type: cell-based, human; conditions: for Exp. 2, normalized change of nuclei numbers (Less cells): 20X objective, lysosomal LAMP co-staining
Summary of the method: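 WI-38 cells were treated with compounds for 24 hrs, then immunostained for LC3A/B (overnight, 4° C) with DAPI counterstain and imaged by high-content microscopy. Experiment 1 used total puncta intensity. Experiment 2 used LAMP2-colocalized (lysosomal) puncta. Intensity was normalized to nuclei count.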

WI-38 cells = test: Long-term effects on cell viability (5 days, ATP; morphology, PI imaging); assay type: cell-based; conditions: 10 μM; for Luminescence signal for ATP measurement, day-1 Average / Luminescence signal for ATP measurement, day-2 Average / Luminescence signal for ATP measurement, day-3 Average / Luminescence signal for ATP measurement, day-4 Average / Luminescence signal for ATP measurement, day-5 Average: n = 6; for viability at 10 µM: Homo sapiens, WI-38, 120 h, DMSO ctrl = 100.0%, read-out: ATP luminescence by day-5 normalized; for Luminescence signal for ATP measurement, day-5 Average / viability at 10 µM: day-5;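 as to Luminescence signal for ATP measurement, day-2 Average: compounds at 10 µM with ATP read daily over 5 days of treatment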;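 as to Luminescence signal for ATP measurement, day-3 Average: compounds at 10 µM with ATP read daily over 5 days of treatment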;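 as to Luminescence signal for ATP measurement, day-4 Average: compounds at 10 µM with ATP read daily over 5 days of treatment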;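 as to Luminescence signal for ATP measurement, day-5 Average: compounds at 10 µM with ATP read daily over 5 days of treatment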
[1] = 24 h, Assay 12(o), at 10 uM, qPCR, read-out: Induction of NRF2-regulated genes: GSTM1 normalized fold-change
[2] = 24 h, Assay 12(o), at 10 uM, qPCR, read-out: Induction of NRF2-regulated genes: HMOX1 normalized fold-change
[3] = 24 h, Assay 12(o), at 10 uM, qPCR, read-out: Induction of NRF2-regulated genes: NQO1 normalized fold-change
[4] = rounded fold change, WI-38 cells, 10 μM, 24 hrs (RP11 for Gr-1D, RP29 for Gr-4D), read-out: Summary of effects on NRF2-regulated genes: HMOX1
[5] = rounded fold change, WI-38 cells, 10 μM, 24 hrs (RP29 for Gr-4D), read-out: Summary of effects on NRF2-regulated genes: GSTM1
[6] = rounded fold change, WI-38 cells, 10 μM, 24 hrs (RP29 for Gr-4D), read-out: Summary of effects on NRF2-regulated genes: NQO1
[7] = 10 μM, 24 hrs, WI-38, read-out: Expression of at least two NRF2 target genes
[8] = 10 μM, 24 hrs, WI-38 cells, qPCR, normalized to B2M, n = 4, read-out: GSTM1 expression, normalized fold change (NRF2-regulated gene)
[9] = 10 μM, 24 hrs, WI-38 cells, qPCR, normalized to B2M, n = 4, read-out: HMOX1 expression, normalized fold change (NRF2-regulated gene)
[10] = 10 μM, 24 hrs, WI-38 cells, qPCR, normalized to B2M, n = 4, read-out: NQO1 expression, normalized fold change (NRF2-regulated gene)
[11] = WI-38 cells, 10 μM, 24 hrs, n=4, qPCR normalized by B2M, read-out: GCLC Normalized fold change
[12] = WI-38 cells, 10 μM, 24 hrs, n=4, qPCR normalized by B2M, read-out: GSTM1 Normalized fold change
[13] = WI-38 cells, 10 μM, 24 hrs, n=4, qPCR normalized by B2M, read-out: HMOX1 Normalized fold change
[14] = WI-38 cells, 10 μM, 24 hrs, n=4, qPCR normalized by B2M, read-out: NQO1 Normalized fold change
[15] = Batch 2, day-0 luminescence = 229312 ± 17487
[16] = 24 h, Assay 12(o), at 10 uM, qPCR, read-out: Induction of NRF2-regulated genes: GCLC normalized fold-change
[17] = rounded fold change, WI-38 cells, 10 μM, 24 hrs, read-out: Summary of effects on NRF2-regulated genes: GCLC
[18] = 10 μM, 24 hrs, WI-38 cells, qPCR, normalized to B2M, n = 4, read-out: GCLC expression, normalized fold change (NRF2-regulated gene)
[19] = Batch 1, day-0 luminescence = 320956 ± 24708
[20] = Exp. 1, 10 μM, 10X objective, WI-38 cells

Row | SMILES | F = Potential NRF2 Activation (NRF2; 2-point score) | Potential NRF2 Activation (>=2 target genes induced, by >=1.5-fold) (NRF2) | fold induction at 10 µM (NRF2; [2]) | fold induction at 10 µM (NRF2; [4]) | fold induction at 10 µM (NRF2; [9]) | fold induction at 10 µM (NRF2; [11]) | fold induction at 10 µM (NRF2; [12]) | fold induction at 10 µM (NRF2; [13]) | fold induction at 10 µM (NRF2; [14]) | F = Potential NRF2 Activation (NRF2; summary score) | H = Potential Autophagy Induction (LC3A/B puncta; score) | H = Potential Autophagy Induction (LC3A/B puncta; summary score) | O = Potential toxicity (WI-38 cells; human, 5 days) | Q = Potential toxicity (WI-38 cells; human, 5 days) | Luminescence signal for ATP measurement, day-1 Average (WI-38 cells; [19]) | Luminescence signal for ATP measurement, day-2 Average (WI-38 cells; [19]) | Luminescence signal for ATP measurement, day-3 Average (WI-38 cells; [19]) | Luminescence signal for ATP measurement, day-4 Average (WI-38 cells; [19]) | Luminescence signal for ATP measurement, day-5 Average (WI-38 cells; [19]) | viability at 10 µM (WI-38 cells; Batch 1) | also measured
1 | O=C(/C(=C/c1ccc(Cl)cc1)c1nc2ccccc2[nH]1)c1ccccc1 [Gr-4D] | 2 | YES | 4.55 | 4.55 | 4.55 | 0.863 | 1.52 | 4.55 | 2.56 | 2 | 0 | 0 | 0 | 0 |  |  |  |  |  |  | Induction of at least two NRF2-regulated genes (HMOX1, NQO1, GCLC, GSTM1) (NRF2; 10 μM, 24 hrs, WI-38): could induce both FOXO3- and NRF2-regulated genes; fold induction at 10 µM (NRF2; [1]): 1.52; fold induction at 10 µM (NRF2; [3]): 2.56; fold induction at 10 µM (NRF2; [5]): 1.52; fold induction at 10 µM (NRF2; [6]): 2.56; fold induction at 10 µM (NRF2; [7]): > 1.5; fold induction at 10 µM (NRF2; [8]): 1.52; fold induction at 10 µM (NRF2; [10]): 2.56; Summary of effects on NRF2-regulated genes: HMOX1, second run (NRF2; run RP42 (Gr-1D) / RP52 (Gr-4D), WI-38 cells, 10 μM): 2.40,; Summary of effects on NRF2-regulated genes: NQO1, second run (NRF2; run RP52 (Gr-4D), WI-38 cells, 10 μM): 1.49,
2 | Cc1ccc(S(=O)(=O)Nc2cccc3cccnc23)cc1 [Gr-3B] | 0 |  |  |  |  | 1.1 | 1.1 | 1.04 | 1.07 | 0 | 0 | 0 | 0 | 1 |  |  |  |  |  |  | Luminescence signal for ATP measurement, day-1 Average (WI-38 cells; [15]): 184710; Luminescence signal for ATP measurement, day-2 Average (WI-38 cells; [15]): 110226; Luminescence signal for ATP measurement, day-3 Average (WI-38 cells; [15]): 109008; Luminescence signal for ATP measurement, day-4 Average (WI-38 cells; [15]): 52193; Luminescence signal for ATP measurement, day-5 Average (WI-38 cells; [15]): 63138; viability at 10 µM (WI-38 cells; Batch 2): 11.4%
3 | O=C(c1ccc([N+](=O)[O-])o1)N1CCc2ccccc21 [O13] | 2 | YES | 5.52 | 5.52 | 5.52 | 1.99 | 1.31 | 5.52 | 2.95 | 2 | 0 | 0 | 0 | 0 | 546070 | 704210 | 806718 | 947030 | 992715 | 96.7% | fold induction at 10 µM (NRF2; [16]): 1.99; fold induction at 10 µM (NRF2; [1]): 1.31; fold induction at 10 µM (NRF2; [3]): 2.95; fold induction at 10 µM (NRF2; [5]): 1.31; fold induction at 10 µM (NRF2; [6]): 2.95; fold induction at 10 µM (NRF2; [17]): 1.99; fold induction at 10 µM (NRF2; [7]): > 1.5; fold induction at 10 µM (NRF2; [18]): 1.99; fold induction at 10 µM (NRF2; [8]): 1.31; fold induction at 10 µM (NRF2; [10]): 2.95
4 | O=C(Nc1ccc(Cl)c(Cl)c1)c1ccc([N+](=O)[O-])o1 [Gr-1G] | 0 |  | 0.5 | 0.5 | 0.5 | 1.57 | 0.948 | 0.503 | 1.26 | 0 | 1 | 1 | 1 | 0 | 449436 | 530748 | 651695 | 866631 | 955703 | 93.1% | fold induction at 10 µM (NRF2; [16]): 1.57; fold induction at 10 µM (NRF2; [17]): 1.57; fold induction at 10 µM (NRF2; [18]): 1.57; Assay 15: Potential autophagy induction by LC3A/B puncta assays (LC3A/B puncta; 10 uM & 20 uM, YES/NO): YES; Exp. 1, induction of LC3A/B puncta (Up), total intensity normalized by total number of nuclei in the fields (LC3A/B puncta; [20]): p < 0.001; Up, 2006%,; Exp. 1, normalized change of nuclei numbers (Less cells) (LC3A/B puncta; [20]): Less cells, 41%,; Exp. 2, normalized change of nuclei numbers (Less cells) (LC3A/B puncta; Exp. 2, 10 μM, WI-38 cells): Less cells, 47%,; Exp. 2, normalized change of nuclei numbers (Less cells) (LC3A/B puncta; Exp. 2, 20 μM, WI-38 cells): Less cells, 67%,
5 | O=C(NCc1cccnc1)/C(=C\c1ccc(Br)cc1)S(=O)(=O)c1ccccc1 [Gr-7B] | 0 |  | 17.9 | 54.1 | 54.1 | 1.8 | 0.981 | 54.2 | 1.41 | 0 | 0 | 0 | 1 | 1 | 311883 | 56498 | 40001 | 44298 | 40768 | 4% | Reduction of ATP content after 5 days of continuous incubation (WI-38 cells; human, 5 days): more than 40%
6 | COC(=O)CCc1sc2c(c1[N+](=O)[O-])NC(=O)CCC2 [O20] | 2 | YES |  |  |  | 1.76 | 1.36 | 0.937 | 2.49 | 2 | 0 | 0 | 1 | 0 | 544305 | 770055 | 888893 | 997113 | 926888 | 90.3% | fold induction at 10 µM (NRF2; [16]): 1.76; fold induction at 10 µM (NRF2; [3]): 2.49; fold induction at 10 µM (NRF2; [6]): 2.49; fold induction at 10 µM (NRF2; [17]): 1.76; fold induction at 10 µM (NRF2; [7]): > 1.5; fold induction at 10 µM (NRF2; [18]): 1.76; fold induction at 10 µM (NRF2; [10]): 2.49

Reference: patent publication US11413278B2, “Compounds and methods for promoting stress resistance” (priority 2015, dated 2022)
